Consider two compounds from US6821986B2, “Amino acid derivatives and their use as medicines” (Societe de Conseils de Recherchet et E'Applications …, priority 2000, dated 2004).

Each structure is given as a SMILES string. pEC50, pIC50: −log10 of the molar value.

Assay [1] concerns the target T1, neuronal constitutive NO synthase (Rattus norvegicus, UniProt P29476).
T1 construct: The reaction is initiated by adding 50 μl of homogenate; from tissue; host or cells: cerebellum of Sprague-Dawley rats (homogenate, centrifuged at 21000 g)
Briefly: Effects on neuronal constitutive NO synthase of a rat's cerebellum ([3H]L-arginine to [3H]L-citrulline conversion). Type of assay: biochemical. The note with it: rat cerebellum homogenate, conversion of [3H]L-arginine to [3H]L-citrulline, 15 min. The method, then:
Study of the Effects on Neuronal Constitutive NO Synthase of a Rat's Cerebellum
The inhibitory activity of the products of the invention is determined by measuring their effects on the conversion by NO synthase of [^3H]L-arginine to [^3H]L-citrulline according to the modified method of Bredt and Snyder (Proc. Natl. Acad. Sci. USA, (1990) 87: 682-685). The cerebellums of Sprague-Dawley rats (300 g-Charles River) are rapidly removed, dissected at 4° C. and homogenized in a volume of extraction buffer (HEPES 50 mM, EDTA 1 mM, pH 7.4, pepstatin A […], leupeptin […]). The homogenates are then centrifuged at 21000 g for 15 min at 4° C. Dosage is carried out in glass test tubes in which 100 μl of incubation buffer containing 100 mM of HEPES (pH 7.4), 2 mM of EDTA, 2.5 mM of CaCl2, 2 mM of dithiotreitol, 2 mM of reduced NADPH and 10 μg/ml of calmodulin are distributed. 25 μl of a solution containing 100 nM of [^3H]L-arginine (Specific activity: 56.4 Ci/mmole, Amersham) and 40 μM of non-radioactive L-arginine is added. The reaction is initiated by adding 50 μl of homogenate, the final volume being 200 μl (the missing 25 μl are either water or the tested product). […] After passing the samples through a 1 ml column of DOWEX resin, the radioactivity is quantified by a liquid scintillation spectrometer.

The subject of a further assay is HT-22 cells. Briefly: Protection of HT-22 cells from oxidation stress induced by glutamate (MTT viability). Type of assay: cell-based. The following applies: Mus musculus, glutamate 5 mM, cell viability after 24 h by MTT. The method, then:
Study of the Effects on the Oxidation Stress Induced by Glutamate on Cells in Culture (HT-22).
The inhibitory activity of the products of the invention is determined by measuring their ability to protect the cells of a mouse hippocampal line (HT-22) from an oxidation stress caused by glutamate. The biosynthesis of glutathione, an essential element of cell detoxification of free radicals, requires the active transport of cystine to the interior of the cell. The glutamate by opposing the penetration of cystine causes a reduction in the level of glutathione which leads to the death of the cell due to oxidation stress (Demerlé-Pallardy, C. et al., J. Neurochem. (2000) 74, 2079-2086; Murphy, T. H. et al., Neuron, (1989) 2: 1547-1558). The cells are cultured at 37° C. in a DMEM medium with 10% of foetal calf serum added to it. The tests are carried out in 96-well plates containing 5000 cells per well. The glutamate (5 mM) is added to the medium containing or not containing the products to be tested. The cell viability is tested after 24 h by the MTT method (Hansen, M. B. et al., J Immunol. Methods (1989), 119, 203-210). The ability of the compounds to protect the cells from the toxic action of the glutamate is estimated in EC50, calculated relative to the viability of cells which have not been subjected to the action of glutamate considered as 100% viability.

Broadly, the pIC50 is the IC50 on a negative log10 scale, so that one unit is a factor of ten. A high value points to a low IC50. Broadly, the pEC50 is −log10 of the EC50, conventionally taken in molar units. A higher pEC50 goes with a low EC50.

Regarding `CN1CCc2cc(NC(=O)[C@@H](N)CCCNC(=N)N[N+](=O)[O-])ccc21` [Example 2, (2S)-2-amino-5-{[imino(2-oxido-2-oxohydrazino)methyl]amino}-N-(1-methyl-2,3-dihydro-1H-indol-5-yl)pentanamide], the pIC50 in assay [1] was over 5.00. The same compound had a negative logarithm of the EC50 (pEC50) in the assay on HT-22 cells of over 4.60.
The corresponding values for `N=C(NCCC[C@H](N)C(=O)Nc1ccc(Nc2ccccc2)cc1)N[N+](=O)[O-]` [Example 1, (2S)-2-amino-N-(4-anilinophenyl)-5-{[imino(2-oxido-2-oxohydrazino)methyl]amino}pentanamide] are over 5.00 and over 4.60.
